Values quoted from earlier work in paper PMC10320121 (Nucleic Acids Research, 2023).

Question: For `N#Cc1ccc2[nH]cc(CCCCN3CCN(c4ccc5oc(C(N)=O)cc5c4)CC3)c2c1` [Vilazodone, vilazodone], which “oral bioavailability (F)” value is on record?
Answer: The value was 47.45%.
